Values of other authors, collected in patent US7592331B2, “Macrocyclic factor VIIa inhibitors useful as anticoagulants” (Bristol-Myers Squibb Company, priority 2005, dated 2009).

How the values were obtained:
[1] = tested on: patients undergoing coronary angioplasty
[2] = tested on: patients with acute coronary syndromes
[3] = tested on: patients undergoing total knee replacement

In the case of “recombinant nematode anticoagulant protein c2 [rNAPc2]”, the systemic thrombin generation [1] is listed as “reduces systemic thrombin generation”, the “magnitude and duration of ischemic events” value [2] is listed as “reduces magnitude and duration of ischemic events” and the deep vein thrombosis [3] is listed as “prevents deep vein thrombosis”.
